In this experiment the target is human ACC2 (Homo sapiens (Human), UniProt O00763). Description: ACC2 assay (spectrophotometric 384 well assay, NADH-linked coupled lactate dehydrogenase/pyruvate kinase). The class given is biochemical. The note with it: hACC2 construct lacking 128 N-terminal amino acids; 25° C., 340 nm, 15 minutes. As to the method:
Spectrophotometric 384 Well Assay
Malonyl CoA formation by acetyl CoA carboxylases is stoichometrically linked to the consumption of ATP. ACC2 activity is measured in a NADH-linked kinetic method measuring ADP generated during the ACC reaction using a coupled lactate dehydrogenase/pyruvate kinase reaction.
For biological testing, a human ACC2 construct which lacks the 128 amino acids at the N-terminus for increased solubility (nt 385-6966 in Genbank entry AJ575592) is cloned. The protein is then expressed in insect cells using a baculoviral expression system. Protein purification is performed by anion exchange.
All compounds are dissolved in dimethyl sulfoxide (DMSO) to a concentration of 10 mM.
Assay reactions are then carried out in 384-well plates, with hACC2 in an appropriate dilution and at final assay concentrations (f.c.) of 100 mM Tris (pH 7.5), 10 mM trisodium citrate, 25 mM KHCO3, 10 mM MgCl2, 0.5 mg/ml BSA, 3.75 mM reduced L-glutathione, 15 U/ml lactate dehydrogenase, 0.5 mM phosphoenolpyruvate, 15 U/ml pyruvate kinase, compounds at different concentrations at final DMSO concentrations of 1%.
The enzymatic reaction is then started by addition of a mixture of NADH, acetyl Coenzyme A (both 200 μM f.c.) and ATP (500 uM f.c.). The decrease of the optical density (slope S) is then determined at 25° C. at a wavelength of 340 nm over 15 minutes in a spectrophotometric reader.
Each assay microtiter plate contains wells with vehicle instead of compound as controls for the non-inhibited enzyme (100% CTL; ‘HIGH’) and wells without acetyl-CoA as controls for non-specific NADH degradation (0% CTL; ‘LOW’).
The slope S is used for calculation of % CTL=(S(compound)−S(‘LOW’))/(S(‘HIGH’)—S(‘LOW’))*100. Compounds will give values between 100% CTL (no inhibition) and 0% CTL (complete inhibition).
For IC50 value determination, the sample slope in the presence of the test compound after subtraction of the low controls (S(compound)−S(‘LOW’)) are used.
An IC50 value is derived from the compound slopes at different dosages after subtraction of the low controls (S(compound)−S(‘LOW’)) by non-linear regression curve fitting (equation y=(A+((B−A)/(1+((C/x)^D))))).
Sequence of human ACC2 (O00763 129-2458): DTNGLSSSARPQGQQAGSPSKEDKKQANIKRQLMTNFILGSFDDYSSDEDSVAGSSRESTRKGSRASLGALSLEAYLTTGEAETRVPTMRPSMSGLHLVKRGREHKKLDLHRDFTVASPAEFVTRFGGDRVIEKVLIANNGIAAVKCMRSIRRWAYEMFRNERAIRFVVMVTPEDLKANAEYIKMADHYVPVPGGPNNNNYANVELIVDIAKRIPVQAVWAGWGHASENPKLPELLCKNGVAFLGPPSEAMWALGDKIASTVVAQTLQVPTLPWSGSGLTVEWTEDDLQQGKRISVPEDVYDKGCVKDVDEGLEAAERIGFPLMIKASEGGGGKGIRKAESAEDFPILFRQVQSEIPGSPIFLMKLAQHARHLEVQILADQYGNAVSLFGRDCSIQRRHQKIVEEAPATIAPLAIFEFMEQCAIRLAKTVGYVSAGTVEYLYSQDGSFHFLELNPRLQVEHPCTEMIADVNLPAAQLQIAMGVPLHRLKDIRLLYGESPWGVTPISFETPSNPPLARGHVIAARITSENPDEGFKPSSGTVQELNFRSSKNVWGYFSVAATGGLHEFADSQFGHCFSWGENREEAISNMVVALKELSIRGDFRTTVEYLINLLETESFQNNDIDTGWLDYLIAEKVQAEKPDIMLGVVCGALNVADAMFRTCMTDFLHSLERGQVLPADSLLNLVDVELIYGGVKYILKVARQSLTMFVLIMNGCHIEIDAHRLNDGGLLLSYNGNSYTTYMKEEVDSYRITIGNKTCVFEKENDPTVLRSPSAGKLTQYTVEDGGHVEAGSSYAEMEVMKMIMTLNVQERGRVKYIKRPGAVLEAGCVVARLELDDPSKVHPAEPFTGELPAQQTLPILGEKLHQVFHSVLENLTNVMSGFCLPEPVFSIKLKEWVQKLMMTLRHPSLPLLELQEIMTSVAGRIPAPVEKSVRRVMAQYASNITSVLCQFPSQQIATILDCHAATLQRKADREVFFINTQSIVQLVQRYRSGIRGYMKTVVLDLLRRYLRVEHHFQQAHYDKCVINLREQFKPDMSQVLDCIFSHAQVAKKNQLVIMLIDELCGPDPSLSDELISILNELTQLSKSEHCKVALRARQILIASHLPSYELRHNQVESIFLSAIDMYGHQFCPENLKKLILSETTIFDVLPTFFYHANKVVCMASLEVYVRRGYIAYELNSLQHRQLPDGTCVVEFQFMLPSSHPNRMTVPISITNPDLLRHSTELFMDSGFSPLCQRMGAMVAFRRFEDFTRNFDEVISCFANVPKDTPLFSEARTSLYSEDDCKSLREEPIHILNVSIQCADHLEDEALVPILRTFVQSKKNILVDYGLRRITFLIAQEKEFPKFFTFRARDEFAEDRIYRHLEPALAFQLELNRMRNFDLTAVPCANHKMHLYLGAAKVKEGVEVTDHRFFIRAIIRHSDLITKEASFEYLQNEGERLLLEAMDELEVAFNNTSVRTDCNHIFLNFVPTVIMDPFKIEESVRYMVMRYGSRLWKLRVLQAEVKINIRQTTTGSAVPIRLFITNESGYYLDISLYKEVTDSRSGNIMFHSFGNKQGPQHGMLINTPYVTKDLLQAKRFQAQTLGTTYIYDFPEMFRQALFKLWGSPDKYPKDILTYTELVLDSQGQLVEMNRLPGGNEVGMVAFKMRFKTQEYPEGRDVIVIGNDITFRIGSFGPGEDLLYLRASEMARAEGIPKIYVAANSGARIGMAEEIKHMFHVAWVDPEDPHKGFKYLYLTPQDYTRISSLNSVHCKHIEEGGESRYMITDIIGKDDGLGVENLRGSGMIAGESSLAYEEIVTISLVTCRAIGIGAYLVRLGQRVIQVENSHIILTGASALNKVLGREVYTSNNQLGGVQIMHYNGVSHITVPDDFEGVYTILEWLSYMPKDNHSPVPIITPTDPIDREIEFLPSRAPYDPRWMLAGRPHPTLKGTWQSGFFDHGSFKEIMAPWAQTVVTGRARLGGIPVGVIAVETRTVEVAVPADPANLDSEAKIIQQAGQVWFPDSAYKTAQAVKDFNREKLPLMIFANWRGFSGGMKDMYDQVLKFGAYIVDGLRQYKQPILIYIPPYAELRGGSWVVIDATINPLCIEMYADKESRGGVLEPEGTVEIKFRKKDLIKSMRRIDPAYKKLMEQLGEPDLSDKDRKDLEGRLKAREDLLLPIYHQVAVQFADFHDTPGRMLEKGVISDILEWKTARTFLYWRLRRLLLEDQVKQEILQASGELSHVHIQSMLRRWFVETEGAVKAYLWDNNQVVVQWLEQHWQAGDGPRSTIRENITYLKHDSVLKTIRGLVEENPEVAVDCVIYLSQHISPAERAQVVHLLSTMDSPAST
Molecule `CC(=O)N[C@@H](C)c1ccc(OC2CN(c3ccc(OCC4CC4)cc3)C2)cn1` (stereo in doubt) [Example 14, N-(1-{5-[1-(4-Cyclopropylmethoxy-phenyl)-azetidin-3-yloxy]-pyridin-2-yl}-ethyl)-acetamide] displayed an IC50 of 2040 nM.

As for `CC(=O)NC(C)c1ccc(OC2CN(c3ccc(C(C)(C)C)cc3)C2)cc1` (stereo not shown) [Example 1.1, N-(1-(4-(1-(4-tert-Butylphenyl)azetidin-3-yloxy)phenyl)ethyl)acetamide], half-maximal inhibition (IC50) was put at 180 nM.

For `CC(=O)NC(C)c1ccc(OC2CN(c3ccc4c(c3)OCCO4)C2)cc1` (stereo not shown) [Example 1.2], the concentration for half-maximal inhibition (IC50) turned out to be 240 nM.

In the case of `CC(=O)NC(C)c1ccc(OC2CN(c3ccc(OC4CC4)cc3)C2)cc1` (stereo not shown) [Example 1.3], half-maximal inhibition (IC50) was put at 530 nM.

`CC(=O)NC(C)c1ccc(OC2CN(c3ccc(OC4CCC4)cc3)C2)cc1` (stereo not shown) [Example 1.4] registered an IC50 of 130 nM.

Molecule `CCOc1ccc(N2CC(Oc3ccc(C(C)NC(C)=O)cc3)C2)cc1` (stereo not shown) [Example 1.5] displayed a concentration for half-maximal inhibition (IC50) of 200 nM.

`CC(=O)NC(C)c1ccc(OC2CN(c3ccc(OC4CCCC4)cc3)C2)cc1` (stereo not shown) [Example 1.6] gave an IC50 of 80 nM.

Consider `CCNc1ncc(N2CC(Oc3ccc(C(C)NC(C)=O)cc3)C2)cn1` (stereo not shown) [Example 1.7], for which it took 1250 nM to reach half-maximal inhibition (IC50).

On to `CC(=O)NC(C)c1ccc(OC2CN(c3ncc(Br)cn3)C2)cc1` (stereo not shown) [Example 1.8], for which the 50% inhibitory concentration (IC50) amounted to 550 nM.

Turning to `CCCOc1ccc(N2CC(Oc3ccc(C(C)NC(C)=O)cc3)C2)cn1` (stereo not shown) [Example 1.9], the IC50 turned out to be 560 nM.

As for `CC(=O)NC(C)c1ccc(OC2CN(c3cnc(OC4CCC4)nc3)C2)cc1` (stereo not shown) [Example 1.10], the IC50 amounted to 670 nM.

On to `CC(=O)NC(C)Cc1ccc(OC2CN(c3ccc(C(C)(C)C)cc3)C2)cc1` (stereo not shown) [Example 1.11], for which half-maximal inhibition (IC50) was put at 2210 nM.

On to `CCOc1ccc(N2CC(Oc3ccc(CC(C)NC(C)=O)cc3)C2)cc1` (stereo not shown) [Example 1.12], for which inhibition was half-maximal at 5340 nM (IC50).

Take `CCCOc1ccc(N2CC(Oc3ccc([C@H](C)NC(C)=O)cc3)C2)cc1` [Example 1.13]: the IC50 was determined as 70 nM.

`CC(=O)N[C@@H](C)c1ccc(OC2CN(c3ccc(OCC4CC4)cc3)C2)cc1` [Example 1.14]: the midpoint of inhibition, the IC50, lay at 70 nM.

With `CC(=O)N[C@@H](C)c1ccc(OC2CN(c3cnc(NC4CCC4)nc3)C2)cc1` [Example 1.15], the IC50 was determined as 180 nM.

Turning to `CC(=O)N[C@@H](C)c1ccc(OC2CN(c3ccc4c(c3)OCCCO4)C2)cc1` [Example 1.16], the IC50 stood at 450 nM.

`CCOc1ccc(N2CC(Oc3ccc([C@H](C)NC(C)=O)cc3)C2)c(OC)c1` [Example 1.17] registered an IC50 of 1890 nM.

In turn, `CC(=O)N[C@@H](C)c1ccc(OC2CN(c3ccc4c(c3)OCC(C)(C)CO4)C2)cc1` [Example 1.18] had a half-inhibitory concentration (IC50) of 140 nM.

With `CCOc1ccc(N2CC(Oc3ccc([C@H](C)NC(C)=O)cc3)C2)cc1` [Example 1.19], the IC50 turned out to be 90 nM.

In turn, `COc1cc(OC2CCC2)ccc1N1CC(Oc2ccc([C@H](C)NC(C)=O)cc2)C1` [Example 1.20] registered an IC50 of 490 nM.

`CCCOc1ccc(N2CC(Oc3ccc([C@H](C)NC(C)=O)cc3)C2)c(OC)c1` [Example 1.21] had a half-maximal inhibitory concentration (IC50) of 190 nM.

Take `COc1ccc(N2CC(Oc3ccc([C@H](C)NC(C)=O)cc3)C2)c(C#N)c1` [Example 1.22]: 1180 nM corresponded to half-maximal inhibition (IC50).

On to `CC(=O)N[C@@H](C)c1ccc(OC2CN(c3ccc(C(F)(F)F)cc3C#N)C2)cc1` [Example 1.23], for which the IC50 was found to be 2810 nM.

Consider `CC(=O)N[C@@H](C)c1ccc(OC2CN(c3ccc4c(c3)OCCO4)C2)cc1` [Example 1.24], for which 120 nM corresponded to half-maximal inhibition (IC50).

For the molecule `CCCOc1ccc(N2CC(Oc3ccc([C@H](C)NC(C)=O)cc3)C2)c(C#N)c1` [Example 1.25], the 50% inhibitory concentration (IC50) was 580 nM.

Consider `CC(=O)N[C@@H](C)c1ccc(OC2CN(c3ccc4c(c3)OC(F)(F)O4)C2)cc1` [Example 1.26], for which the half-maximal inhibitory concentration (IC50) stood at 740 nM.

As to `CC(=O)N[C@@H](C)c1ccc(OC2CN(c3ccc4oc(C)nc4c3)C2)cc1` [Example 1.27], the IC50 worked out at 1750 nM.

`CC(=O)N[C@@H](C)c1ccc(OC2CN(c3ccc4oc(-c5ccccc5)nc4c3)C2)cc1` [Example 1.28] gave an IC50 of 1620 nM.

In turn, `CC(=O)N[C@@H](C)c1ccc(OC2CN(c3ccc4c(c3)OCCCC4(C)C)C2)cc1` [Example 1.29] displayed an IC50 of 190 nM.

`CCOc1cccc(N2CC(Oc3ccc([C@H](C)NC(C)=O)cc3)C2)c1` [Example 1.30] came in with an IC50 of 670 nM.

Consider `CCCOc1ccc(N2CC(Oc3ccc([C@H](C)NC(=O)N(C)C)cc3)C2)cc1` [Example 1.31], for which half-maximal inhibition (IC50) was put at 190 nM.

`C[C@H](NC(=O)N(C)C)c1ccc(OC2CN(c3ccc(OC4CC4)cc3)C2)cc1` [Example 1.32] came in with an IC50 of 190 nM.

In the case of `C[C@H](NC(=O)N(C)C)c1ccc(OC2CN(c3ccc(OCC4CC4)cc3)C2)cc1` [Example 1.33], the IC50 was 200 nM.

`C[C@H](NC(=O)N(C)C)c1ccc(OC2CN(c3ccc4c(c3)OCCO4)C2)cc1` [Example 1.34]: inhibition was half-maximal at 340 nM (IC50).

As for `CCCOc1ccc(N2CC(Oc3ccc([C@H](C)NC(=O)C4CC4)cc3)C2)cc1` [Example 1.35], the half-maximal inhibitory concentration (IC50) stood at 60 nM.

`COc1cc(OCC2CC2)ccc1N1CC(Oc2ccc([C@H](C)NC(C)=O)cc2)C1` [Example 1.36] gave an IC50 of 2830 nM.

In turn, `COc1cc(OC(C)C)ccc1N1CC(Oc2ccc([C@H](C)NC(C)=O)cc2)C1` [Example 1.37] returned an IC50 of 2270 nM.

Molecule `CCC(C)Oc1ccc(N2CC(Oc3ccc([C@H](C)NC(C)=O)cc3)C2)c(OC)c1` (stereo partly shown) [Example 1.38] displayed an IC50 of 2310 nM.

Molecule `C[C@H](NC(=O)C1CC1)c1ccc(OC2CN(c3ccc(OC4CC4)cc3)C2)cc1` [Example 1.39] registered a half-inhibitory concentration (IC50) of 350 nM.

`C[C@H](NC(=O)C1CC1)c1ccc(OC2CN(c3ccc(OCC4CC4)cc3)C2)cc1` [Example 1.40] registered an IC50 of 1030 nM.

As to `C[C@H](NC(=O)C1CC1)c1ccc(OC2CN(c3ccc4c(c3)OCCO4)C2)cc1` [Example 1.41], half-maximal inhibition (IC50) required 1230 nM.

Molecule `CCCOc1cccc(N2CC(Oc3ccc([C@H](C)NC(=O)N(C)C)cc3)C2)c1` [Example 1.42] had a 50% inhibitory concentration (IC50) of 1050 nM.

As for `COc1cc(OC2CC2)ccc1N1CC(Oc2ccc([C@H](C)NC(C)=O)cc2)C1` [Example 1.43], the concentration for half-maximal inhibition (IC50) was determined as 1290 nM.

`CC(=O)N[C@@H](C)c1ccc(OC2CN(c3ccc(OC4CC4)cc3C)C2)cc1` [Example 1.44] displayed an IC50 of 250 nM.

On to `CC(=O)N[C@@H](C)c1ccc(OC2CN(c3c(F)cc(OC4CC4)cc3F)C2)cc1` [Example 1.45], for which the IC50 is 130 nM.

As to `CC(=O)N[C@@H](C)c1ccc(OC2CN(c3ccc(OC4CCC4)cc3C#N)C2)cc1` [Example 1.46], it took 170 nM to reach half-maximal inhibition (IC50).

As for `CC(=O)N[C@@H](C)c1ccc(OC2CN(c3ccc(OCC4CC4)cc3C#N)C2)cc1` [Example 1.47], the IC50 turned out to be 400 nM.

`CCCOc1cccc(N2CC(Oc3ccc([C@H](C)NC(C)=O)cc3)C2)c1` [Example 1.48] gave an IC50 of 1020 nM.

The molecule `CC(=O)N[C@@H](C)c1ccc(OC2CN(c3cccc(OCC(C)C)c3)C2)cc1` [Example 1.49] returned an IC50 of 1130 nM.

`CCOc1ccc(N2CC(Oc3ccc([C@H](C)NC(C)=O)cc3)C2)nc1` [Example 1.51]: 270 nM corresponded to half-maximal inhibition (IC50).

As for `CCCOc1ccc(N2CC(Oc3ccc([C@H](C)NC(C)=O)cc3)C2)nc1` [Example 1.52], half-maximal inhibition (IC50) required 90 nM.

`CC(=O)N[C@@H](C)c1ccc(OC2CN(c3cc4c(cc3F)OCCCO4)C2)cc1` [Example 1.53] showed an IC50 of 760 nM.

With `CC(=O)N[C@@H](C)c1ccc(OC2CN(c3ccc(OCC4CC4(F)F)cc3F)C2)cc1` (stereo partly shown) [Example 1.54], 40 nM corresponded to half-maximal inhibition (IC50).

`CC(=O)N[C@@H](C)c1ccc(OC2CN(c3ccc(OC4CC4)cc3F)C2)cc1` [Example 1.55] returned an IC50 of 110 nM.

For the molecule `CC(=O)N[C@@H](C)c1ccc(OC2CN(c3cccc(C(F)(F)F)c3)C2)cc1` [Example 1.56], the concentration for half-maximal inhibition (IC50) is 150 nM.

`CC(=O)N[C@@H](C)c1ccc(OC2CN(c3cc4c(cc3F)OCCO4)C2)cc1` [Example 1.57] registered an IC50 of 740 nM.

Regarding `CCOc1ccc(N2CC(Oc3ccc([C@H](C)NC(C)=O)cc3)C2)c(C#N)n1` [Example 1.58], the IC50 stood at 1390 nM.

Molecule `CCCOc1ccc(N2CC(Oc3ccc([C@H](C)NC(C)=O)cc3)C2)c(C#N)n1` [Example 1.59] yielded an IC50 of 300 nM.

In turn, `CC(=O)N[C@@H](C)c1ccc(OC2CN(c3ccc(OCC4CC4)nc3C#N)C2)cc1` [Example 1.60] registered an IC50 of 650 nM.

Take `COc1cc(OCC2CC2(F)F)ccc1N1CC(Oc2ccc([C@H](C)NC(C)=O)cc2)C1` (stereo partly shown) [Example 1.61]: the midpoint of inhibition, the IC50, lay at 2540 nM.

Usually IC50 stands for the midpoint of a concentration-inhibition curve.

Values taken from US8530460B2, “Azetidine derivatives” (Boehringer Ingelheim International GmbH, priority 2011, dated 2013).
